The values below come from ChEMBL document CHEMBL3352019, “Recent developments in biological activities of chalcones: a mini review” (Eur J Med Chem, 2014).

For data set [1], the system named is Plasmodium falciparum. As to the kind of experiment: Antimalarial activity against Plasmodium falciparum K1. Type of data set: functional, organism-based.
In data set [2] the test system is Staphylococcus aureus. As to the kind of experiment: Antimicrobial activity against Staphylococcus aureus by cup-plate agar diffusion method. Type of data set: functional. In general terms: Agar diffusion results depend on both activity and mobility in agar.
The subject of another data set is Candida albicans. As to the kind of experiment: Antimicrobial activity against Candida albicans. Format: functional.
In data set [3] the test system is Escherichia coli. As to the kind of experiment: Antimicrobial activity against Escherichia coli. Type of data set: functional.
The test system of the next data set is Leishmania major. As to the kind of experiment: Antiprotozoal activity against Leishmania major promastigote forms. Format: functional, organism-based.
A further data set relates to Penicillium chrysogenum. As to the kind of experiment: Antimicrobial activity against Penicillium chrysogenum. Type of data set: functional.
Data set [4] has as its system Bacillus subtilis. Description: Antimicrobial activity against Bacillus subtilis. Type of data set: functional.
The test system of the next data set is MDA-MB-231. As to the kind of experiment: Anticancer activity against human MDA-MB-231 cells. Type of data set: functional, cell-based.
Data set [5] can be described thus: Antioxidant activity assessed as […] free radical scavenging activity. Format: physicochemical.
Data set [6] has as its system Aspergillus niger. Description: Antimicrobial activity against Aspergillus niger by cup-plate agar diffusion method. Format: functional.
In a further data set the test system is Bacillus. Description: Antimicrobial activity against Bacillus coccus by cup-plate agar diffusion method. Format: functional.
Data set [7] deals with Aspergillus niger. As to the kind of experiment: Antimicrobial activity against Aspergillus niger at 50 ug/mL. Format: functional. Particulars: read-out: IZ.
The subject of data set [8] is Plasmodium falciparum. As to the kind of experiment: Antimalarial activity against Plasmodium falciparum asexual blood stage forms. Format: functional, organism-based.
The test system of data set [9] is Staphylococcus epidermidis. As to the kind of experiment: Antimicrobial activity against Staphylococcus epidermidis. Type of data set: functional.
Another data set has as its system Micrococcus luteus. Description: Antimicrobial activity against Micrococcus luteus. Format: functional.
The next data set deals with Bacillus pumilus. Description: Antimicrobial activity against Bacillus pumilus at 50 ug/mL. Format: functional. Particulars: read-out: IZ.
The subject of data set [10] is Escherichia coli. As to the kind of experiment: Antimicrobial activity against Escherichia coli at 50 ug/mL. Type of data set: functional. Particulars: read-out: IZ.
The test system of data set [11] is Bacillus subtilis. Description: Antimicrobial activity against Bacillus subtilis at 50 ug/mL. Format: functional. The following applies: read-out: IZ.
The subject of data set [12] is Rattus norvegicus. As to the kind of experiment: Inhibition of inflammation in rat carrageenan-induced rat hind paw edema model. Format: functional. (In the carrageenan paw model, swelling and tenderness develop within hours.)
Another data set has as its system Klebsiella aerogenes. As to the kind of experiment: Antimicrobial activity against Enterobacter aerogenes by cup-plate agar diffusion method. Format: functional.
Data set [13] relates to Rattus norvegicus. Description: Inhibition of inflammation in rat carrageenan-induced rat acute paw edema model. Format: functional.
In data set [14] the test system is Plasmodium falciparum. As to the kind of experiment: Antimalarial activity against CQ-resistant Plasmodium falciparum W2. Type of data set: functional, organism-based.
The species named for data set [15] is Rattus norvegicus. As to the kind of experiment: Inhibition of inflammation in rat cotton pellet-induced granuloma model. Format: functional.
Data set [16] has as its system Staphylococcus aureus. As to the kind of experiment: Antimicrobial activity against Staphylococcus aureus. Format: functional.
Data set [17] can be described thus: Anticancer activity against human HSC3 cells. The following applies: HSC-3. Type of data set: functional, cell-based.

Values after ≈ are worked out from the molar mass of the structure shown.

By IC50 is commonly meant the point on the concentration scale where inhibition reaches its midpoint. Low readings indicate higher potency, high ones lower potency. The MIC is the least concentration at which growth counts as inhibited. Read a high MIC as weaker potency.

In the data set with Plasmodium falciparum [1], `COc1ccc(/C=C/C(=O)c2c(O)cccc2O)cc1` returned an IC50 of 7.4 µM. Turning to `O=C(/C=C/c1c(-c2ccc(Br)cc2)nc2ccccn12)c1ccc(Cl)cc1`, in the data set on Staphylococcus aureus [2], the “inhibition zone (IZ)” value is 19 mm. On to `O=C(/C=C/c1ccccc1)N1N=C(c2ccc(Cl)cc2)CC1c1c2ccccc2cc2ccccc12` (centres undefined), for which the entries for the “inhibition zone (IZ)” value in the data set on Candida albicans and with Escherichia coli [3] were 12 mm and 22 mm, respectively.

With `COc1ccc2c(c1)C=C(/C=C/C(=O)c1ccc(Cl)c(Cl)c1)CO2`, the IC50 in the data set on Leishmania major (Leishmania major) is below 1 µM.

Turning to `C[C@]12CC[C@H]3[C@@H](CC=C4CC(O)CC[C@@]43C)[C@@H]1CC[C@@H]2C(=O)/C=C/c1ccccc1` (some centres undefined), the “inhibition zone (IZ)” value with Penicillium chrysogenum came out at 10 mm; in the data set with Bacillus subtilis [4], 19 mm. `O=C(/C=C/c1cccc(Br)c1)C1=Cc2cc(Cl)ccc2OC1`: in the data set with MDA-MB-231, half-maximal inhibition (IC50) required 7.02 µM. For `C=CCc1ccc(/C=C/C(=O)c2cc(C)ccc2O)cc1O`, the “inhibition (INH)” value in data set [5] was determined as 89.64%. Turning to `Cc1ccc(C(=O)/C=C/c2c(-c3ccc(Br)cc3)nc3ccccn23)c(O)c1`, the results for the “inhibition zone (IZ)” value in the data set on Aspergillus niger [6] and with Bacillus were 20 mm and 19 mm, respectively. As to `O=C(/C=C/c1cccc2ccccc12)c1ccc(Cl)cc1Cl`, the zone of inhibition at 50 µg/mL in the data set on Aspergillus niger [7] came to 12 mm. In the case of `COc1ccc(/C=C/C(=O)c2ccc(-n3cnc4ccccc43)cc2)c(OC)c1`, in the data set with Plasmodium falciparum [8], inhibition was half-maximal at 1.1 µg/mL (≈ 2.86 µM) (IC50). In turn, `C=CC(C)(C)c1cc(/C=C/C(=O)c2ccc(O)cc2)c(OC)cc1O` [LICOAGROCHACONE A] came in with an IC50 in the data set on Plasmodium falciparum [8] of 1.43 µg/mL (≈ 4.23 µM).

Regarding `COc1ccc(/C=C/C(=O)c2ccc(OC)c(CC=C(C)C)c2O)cc1`, the MIC (in data set [9]; in the data set with Bacillus subtilis [4] (Bacillus subtilis); with Micrococcus luteus) was 2000 µg/mL (≈ 5670 µM) in each case. In the case of `COc1ccc(/C=C/C(=O)c2ccc(Cl)cc2Cl)cc1`, the zone of inhibition at 50 µg/mL in the data set on Bacillus pumilus stood at 8 mm; with Escherichia coli [10] it was 15 mm; with Bacillus subtilis [11], 13 mm.

For the molecule `O=C(/C=C/c1ccccc1)c1nn(-c2ccccc2)c(-c2ccccc2)c1S(=O)(=O)c1ccccc1`, the “inhibition (INH)” value in the data set with Rattus norvegicus [12] stood at 83.77%. MEGLUMINE ANTIMONATE showed an IC50 in the data set with Leishmania major below 82 µM. `COc1ccc(C(=O)/C=C/c2c(-c3ccc(Br)cc3)nc3ccccn23)cc1`: in the data set on Klebsiella aerogenes, the “inhibition zone (IZ)” value came out at 19 mm. In the case of `Cc1nc2ccc(Cl)cc2c(-c2ccccc2)c1C(=O)/C=C/c1ccco1`, in the data set with Rattus norvegicus [13], the “inhibition (INH)” value is given as 81.78%. In the case of `COc1ccc(/C=C/C(=O)c2ccccc2)cc1S(=O)(=O)N1CCOCC1`, half-maximal inhibition in the data set with Plasmodium falciparum [14] (IC50) was put at 2.06 µM. In the case of `O=C(/C=C/c1ccc(F)cc1)c1ccc(O)cc1`, the “inhibition (INH)” value in the data set filed under Rattus norvegicus [15] is listed as 36.8%. For `COc1ccc2c(c1)C=C(C(=O)/C=C/c1ccc(Cl)c(Cl)c1)CO2`, the IC50 with Leishmania major (Leishmania major) is below 1 µM. Take `O=C(/C=C/c1ccc(O)cc1)c1ccc(O)cc1O` [ISOLIQUIRITIGENIN]: the MIC with Staphylococcus aureus [16] turned out to be 15.6 µg/mL (≈ 60.9 µM). In turn, `COc1cc(O)c(C(=O)/C=C/c2ccccc2)c(OC)c1` [FLAVOKAWAIN B] gave an IC50 in data set [17] of 4.9 µg/mL (≈ 17.2 µM).
